Experimental data from PubChem BioAssay AID1159563 (GlaxoSmithKline (GSK), 2015).
pIC50: −log10 of the molar value. Activity calls are given as the source filed them. The rule behind the calls is not given here.

These compounds were tested on HepG2 cytotoxicity (assay: human hepatoma cell viability loss – cytotoxicity control (AID 1159563)).

For `c1ccc(CNc2cccc3ccncc23)cc1`, which IC50 is on record?
The IC50 was > 100 µM (inactive).

Which IC50 does the source give for `CC(Cn1ccnc1)NC(=O)COc1ccc(Cl)c(Cl)c1` (stereo not given) here?
Its IC50 is > 100 µM (inactive).

For `CN(C)S(=O)(=O)c1ccc(Cl)c(C(=O)Nc2nc(-c3ccccn3)cs2)c1`, which IC50 is on record?
Its IC50 is > 100 µM (inactive).

How did the pIC50 turn out when `COc1ccc(Nc2nc(-c3ccccn3)cc(N3CCCC(O)C3)n2)cc1` (stereo not given) was run?
The pIC50 was 4.40.

How did the pIC50 turn out when `Cc1nc(N2CCC(C(=O)N3CCC(O)(c4cccnc4)CC3)CC2)nc2ccc(C(C)C)cc12` was run?
The pIC50 was 4.10.

With `Cc1nn(-c2ccccc2)nc1CNC(=O)CN(Cc1ccccn1)Cc1ccccn1` as the compound, how does the IC50 read?
Its IC50 is > 130 µM (inactive).

For `O=C(Nc1n[nH]c(-c2ccccn2)n1)C1CC1c1ccccc1` (stereo not given), which IC50 is on record?
Its IC50 is > 100 µM (inactive).

How did the IC50 turn out when `COc1ccc(C2CC(c3ccccc3Cl)=NN2C(=O)CNC(=O)C2CCCC2)cc1` (stereo not given) was run?
The IC50 was > 100 µM (inactive).

How did the pIC50 turn out when `N#Cc1ccc(C(=O)Nc2cccc(-c3cccc(CN4CCC(O)CC4)c3)c2)cc1` was run?
Its pIC50 is 4.40.

Which IC50 does the source give for `Cc1ccccc1OCC(=O)N1CCCN(c2cccnn2)CC1` here?
Its IC50 is > 100 µM (inactive).

Which IC50 does the source give for `Cc1nn(C)c(Cl)c1CN(Cc1cccnc1)Cc1ccsc1` here?
The IC50 was > 100 µM (inactive).

How did the pIC50 turn out when `Cc1cc(Br)sc1CNCCCNc1cc(=O)c2ccccc2[nH]1` was run?
Its pIC50 is 4.40.

How did the IC50 turn out when `CC(Cn1ccnc1)NC(=O)C1CC1c1cccc(Cl)c1Cl` (stereo not given) was run?
Its IC50 is > 100 µM (inactive).

For `CC(C)(C)C(O)(CCc1ccc(Cl)cc1)Cn1cncn1` (stereo not given), which IC50 is on record?
Its IC50 is > 100 µM (inactive).

Which IC50 does the source give for `O=C(N1CCc2ccccc2CC1)C1(C(=O)N2CCC(n3c(=O)[nH]c4ncccc43)CC2)CC1` here?
Its IC50 is > 100 µM (inactive).

`Cc1c(C(=O)NCCCCn2ccnc2)oc2c(C)cccc12` was tested. Which pIC50 did it give?
The pIC50 was 4.10.

How did the pIC50 turn out when `OC1CCC(Nc2nccc(-c3sc(C4CCOCC4)nc3-c3ccc(F)c(F)c3)n2)CC1` (stereo not given) was run?
Its pIC50 is 4.60.

How did the IC50 turn out when `O=C(Cn1cnc2c(-c3ccccc3)csc2c1=O)N1CCCCC1` was run?
The IC50 was > 100 µM (inactive).

How did the pIC50 turn out when `Cn1nccc1-c1cc(OC(CN)c2ccccc2)cnc1-c1ccco1` (stereo not given) was run?
Its pIC50 is 4.30.

Which IC50 does the source give for `COc1ccc(-c2nc3ccncc3c(=O)n2CCOc2ccccc2)cc1` here?
Its IC50 is > 100 µM (inactive).

`COc1cc2c(cc1OC)[C@H]1[C@@H](C)c3ccc(OC)c(OC)c3CN1CC2` was tested. Which IC50 did it give?
Its IC50 is > 100 µM (inactive).

With `CN(C)CCN(C)Cc1ccc(Cl)cc1NS(=O)(=O)c1ccc(Cl)c(Cl)c1` as the compound, how does the pIC50 read?
Its pIC50 is 4.49.

How did the IC50 turn out when `CCN(Cc1ccncc1)Cc1ccc(NC(=O)c2cc(-c3ccc(F)cc3)n[nH]2)cc1` was run?
The IC50 was > 100 µM (inactive).

How did the IC50 turn out when `COc1cnc2ccc(=O)n(CCN3CCC(NC(=O)c4ccc(Cl)cc4)CC3)c2c1` was run?
The IC50 was > 100 µM (inactive).

With `O=C(c1cccc(Nc2ncc(-c3ccc4c(c3)OCO4)cn2)c1)N1CCOCC1` as the compound, how does the IC50 read?
The IC50 was > 130 µM (inactive).

With `Cc1ccc(NC(=O)c2ccc(Cl)c(NC(=O)c3ccc([N+](=O)[O-])cc3)c2)cc1` as the compound, how does the IC50 read?
Its IC50 is > 100 µM (inactive).

How did the pIC50 turn out when `CC(c1ccccn1)N(C)Cc1nc2ccccc2n1C(C)C` (stereo not given) was run?
Its pIC50 is 4.60.

Which IC50 does the source give for `NC(=O)c1ncccc1Nc1nc(NC2CCC(O)CC2)ncc1Br` (stereo not given) here?
The IC50 was > 100 µM (inactive).

`CCN(CC)S(=O)(=O)c1ccc(Cn2nc(C(=O)Nc3ccncn3)c3ccccc32)cc1` was tested. Which IC50 did it give?
The IC50 was > 100 µM (inactive).

With `CNS(=O)(=O)c1ccccc1Nc1nc(Nc2cc(C)nn2C)ncc1Cl` as the compound, how does the pIC50 read?
The pIC50 was 5.40.

With `O=C(NCCCn1cnc2ccccc21)c1ccc(NC(=O)c2ccco2)cc1` as the compound, how does the pIC50 read?
The pIC50 was 4.80.

Which IC50 does the source give for `Cc1cc(Br)cc(C(=O)c2c(C(C)C)c(=O)[nH]c(=O)n2Cc2ccnc(N)c2)c1` here?
The IC50 was > 100 µM (inactive).

For `COc1ccc2c(Cl)c(C(=O)N3CCC3)sc2c1Cl`, which IC50 is on record?
Its IC50 is > 100 µM (inactive).

For `c1cc(-c2ncc(-c3ccn[nH]3)s2)ccn1`, which IC50 is on record?
Its IC50 is > 100 µM (inactive).

How did the IC50 turn out when `O=c1ccn(-c2ccc([N+](=O)[O-])cc2Cl)c2ccc(F)cc12` was run?
Its IC50 is > 100 µM (inactive).

Which IC50 does the source give for `O=C(Nc1ccc(Br)cn1)c1ccc(Cn2cnc([N+](=O)[O-])n2)cc1` here?
The IC50 was > 100 µM (inactive).

With `CC1(Oc2cncc(Cl)c2)CCN(Cc2cc3ccccc3[nH]2)C1` (stereo not given) as the compound, how does the pIC50 read?
Its pIC50 is 4.49.

`COc1ccc(C(=O)[C@H]2C[C@@H]2CN(Cc2ccccn2)Cc2ccccn2)cc1` was tested. Which IC50 did it give?
Its IC50 is > 100 µM (inactive).

`CC(C)c1cc(Nc2cc(Cc3ccccc3)nc(NC3CCC(O)CC3)n2)n[nH]1` (stereo not given) was tested. Which pIC50 did it give?
Its pIC50 is 4.49.

For `Cn1ccnc1CN1CCc2[nH]cnc2C1c1ccccc1OCc1ccccc1` (stereo not given), which IC50 is on record?
The IC50 was > 100 µM (inactive).

How did the pIC50 turn out when `O=C(Nc1nc2ccccc2[nH]1)c1ccc2nc[nH]c2c1` was run?
The pIC50 was 4.30.

With `O=C(CN1CCN(S(=O)(=O)c2cccc([N+](=O)[O-])c2)CC1)Nc1ccc(Oc2ccccc2)cc1` as the compound, how does the IC50 read?
The IC50 was > 100 µM (inactive).

With `O=c1cc(CSc2ccc(Cl)cc2)nc(-c2ccccn2)[nH]1` as the compound, how does the IC50 read?
The IC50 was > 100 µM (inactive).

With `O=C(Nc1nc(-c2ccccn2)cs1)c1ccc(S(=O)(=O)N2CCCCC2)cc1` as the compound, how does the pIC50 read?
The pIC50 was 4.20.

`O=C(CSc1ccc(F)cc1)N[C@@H](Cc1cnc[nH]1)C(=O)NCCc1ccccc1` was tested. Which IC50 did it give?
Its IC50 is > 100 µM (inactive).

With `O=C(CSc1nnc(-c2ccc3c(c2)OCO3)o1)N(Cc1ccco1)CC(F)(F)F` as the compound, how does the IC50 read?
Its IC50 is > 100 µM (inactive).

`c1ccc(-c2nc(NC3CCCCC3)cc(C3CC3)n2)nc1` was tested. Which pIC50 did it give?
The pIC50 was 4.40.

How did the IC50 turn out when `COc1ccc(-c2ccc3nnc(-c4ccc(O)c(OC)c4)n3c2)cn1` was run?
The IC50 was > 100 µM (inactive).

With `CN(Cc1ccccc1)Cc1nnnn1C1CCN(Cc2ccc(-n3ccnc3)cc2)CC1` as the compound, how does the IC50 read?
Its IC50 is > 100 µM (inactive).

`CC(CNS(=O)(=O)c1ccc(OC(F)F)cc1)c1ccc(NC(=O)c2ccncc2)cc1` (stereo not given) was tested. Which pIC50 did it give?
Its pIC50 is 4.00.
